Data published in patent US8044044B2, “4-(1-amino-ethyl)-cyclohexylamine derivatives” (Actelion Pharmaceutical Ltd., priority 2006, dated 2011).
In brackets after ≈: the same amount, converted by molar mass.

What was measured:
S. aureus A798 = test: MIC by broth microdilution (NCCLS), S. aureus A798; assay type: cell-based, Staphylococcus aureus; details: strain A798, cation-adjusted Mueller-Hinton Broth, pH 7.2-7.3; for MIC: Staphylococcus aureus
Protocol: (§1) These assays have been performed following the description given in “Methods for dilution Antimicrobial Susceptibility Tests for Bacteria that Grow Aerobically, 4th ed.; Approved standard: NCCLS Document M7-A4; National Committee for Clinical Laboratory Standards: Villanova, Pa., USA, 1997”. Minimal inhibitory concentrations (MICs; mg/l) were determined in cation-adjusted Mueller-Hinton Broth (BBL) by a microdilution method following NCCLS guidelines (National Committee for Clinical Laboratory Standards. Methods for Dilution Antimicrobial Susceptibility). The pH of the test medium was 7.2-7.3.

P. aeruginosa A1124 = test: MIC by broth microdilution (NCCLS), P. aeruginosa A1124; assay type: cell-based, Pseudomonas aeruginosa; details: strain A1124, cation-adjusted Mueller-Hinton Broth, pH 7.2-7.3; for MIC: Pseudomonas aeruginosa
Protocol: as §1

A. baumanii T6474 = test: MIC by broth microdilution (NCCLS), A. baumanii T6474; assay type: cell-based, Acetinobacter baumannii; details: strain T6474, cation-adjusted Mueller-Hinton Broth, pH 7.2-7.3; for MIC: Acinetobacter baumannii
Protocol: as §1

| MIC (S. aureus A798; second table, all Examples) | MIC S. aureus A798 (S. aureus A798; second table, all Examples) | Compound | also measured |
| --- | --- | --- | --- |
| 0.063 µg/mL (≈ 0.139 µM) | – | COc1ccc2nccc(CC(N)[C@H]3CC[C@H](NCC=Cc4cc(F)ccc4F)CC3)c2n1 (mixture of isomers) [Example 4, trans-{4-[(1RS)-1-amino-2-(6-methoxy-[1,5]naphthyridin-4-yl)-ethyl]-cyclohexyl}-[3-(2,5-difluoro-phenyl)-allyl]-amine] | – |
| – | 0.125 µg/mL (≈ 0.245 µM) | COC(=O)c1ccc(CC(N)[C@H]2CC[C@H](NC/C=C/c3cc(F)ccc3F)CC2)c2nc(OC)ccc12 (mixture of isomers) [Example 5, 8-[(2RS)-2-amino-2-trans-{4-[(E)-3-(2,5-difluoro-phenyl)-allylamino]-cyclohexyl}-ethyl]-2-methoxy-quinoline-5-carboxylic acid methyl ester] | – |
| 0.063 µg/mL (≈ 0.132 µM) | – | COc1cnc2cccc(CC(N)[C@H]3CC[C@H](NCc4ccc5c(n4)NC(=O)CS5)CC3)c2n1 (mixture of isomers) [Example 7, 6-(trans-{4-[(1RS)-1-amino-2-(3-methoxy-quinoxalin-5-yl)-ethyl]-cyclohexylamino}-methyl)-4H-pyrido[3,2-b][1,4]thiazin-3-one] | – |
| 1 µg/mL (≈ 2.09 µM) | – | COc1cnc2cccc(CC(N)[C@H]3CC[C@@H](NCc4ccc5c(n4)NC(=O)CS5)CC3)c2n1 (mixture of isomers) [Example 8, 6-(cis-{4-[(1RS)-1-amino-2-(3-methoxy-quinoxalin-5-yl)-ethyl]-cyclohexylamino}-methyl)-4H-pyrido[3,2-b][1,4]thiazin-3-one] | – |
| 0.5 µg/mL (≈ 1.08 µM) | – | COc1ccc2nccc(CC(N)[C@H]3CC[C@H](NCc4ccc5c(n4)NC(=O)CO5)CC3)c2n1 (mixture of isomers) [Example 9, 6-(trans-{4-[(1RS)-1-amino-2-(6-methoxy-[1,5]naphthyridin-4-yl)-ethyl]-cyclohexylamino}-methyl)-4H-pyrido[3,2-b][1,4]oxazin-3-one] | – |
| 0.031 µg/mL (≈ 0.0625 µM) | – | COc1ccc2ncc(F)c(CC(N)[C@H]3CC[C@H](NCc4ccc5c(n4)NC(=O)CS5)CC3)c2c1 (mixture of isomers) [Example 10, trans-6-({4-[(1RS)-1-amino-2-(3-fluoro-6-methoxy-quinolin-4-yl)-ethyl]-cyclohexylamino}-methyl)-4H-pyrido[3,2-b][1,4]thiazin-3-one] | – |
| – | 0.5 µg/mL (≈ 1.01 µM) | COc1ccc2ncc(F)c(CC(N)[C@H]3CC[C@@H](NCc4ccc5c(n4)NC(=O)CS5)CC3)c2c1 (mixture of isomers) [Example 11, cis-6-({4-[(1RS)-1-amino-2-(3-fluoro-6-methoxy-quinolin-4-yl)-ethyl]-cyclohexylamino}-methyl)-4H-pyrido[3,2-b][1,4]thiazin-3-one] | MIC (S. aureus A798; table of typical results): 0.5 µg/mL (≈ 1.01 µM); MIC (P. aeruginosa A1124): 0.125 µg/mL (≈ 0.252 µM); MIC (A. baumanii T6474): 4 µg/mL (≈ 8.07 µM) |
| ≤ 0.031 µg/mL | – | COc1ccc2ncc(F)c(CC(N)[C@H]3CC[C@H](NC/C=C/c4cc(F)ccc4F)CC3)c2c1 (mixture of isomers) [Example 12, trans-{4-[(1RS)-1-amino-2-(3-fluoro-6-methoxy-quinolin-4-yl)-ethyl]-cyclohexyl}-[3-(E)-(2,5-difluoro-phenyl)-allyl]-amine] | – |
| 0.063 µg/mL (≈ 0.134 µM) | – | COc1ccc2ncc(F)c(CC(N)[C@H]3CC[C@@H](NC/C=C/c4cc(F)ccc4F)CC3)c2c1 (mixture of isomers) [Example 13, cis-{4-[(1RS)-1-amino-2-(3-fluoro-6-methoxy-quinolin-4-yl)-ethyl]-cyclohexyl}-[3-(E)-(2,5-difluoro-phenyl)-allyl]-amine] | – |
| ≤ 0.031 µg/mL | – | COc1ccc2ncc(F)c(CC(N)[C@H]3CC[C@H](NCc4ccc5c(n4)NC(=O)CS5)CC3)c2n1 (mixture of isomers) [Example 14, trans-6-({4-[(1RS)-1-amino-2-(3-fluoro-6-methoxy-[1,5]naphthyridin-4-yl)-ethyl]-cyclohexylamino}-methyl)-4H-pyrido[3,2-b][1,4]thiazin-3-one] | – |
| 0.25 µg/mL (≈ 0.503 µM) | – | COc1ccc2ncc(F)c(CC(N)[C@H]3CC[C@@H](NCc4ccc5c(n4)NC(=O)CS5)CC3)c2n1 (mixture of isomers) [Example 15, cis-6-({4-[(1RS)-1-amino-2-(3-fluoro-6-methoxy-[1,5]naphthyridin-4-yl)-ethyl]-cyclohexylamino}-methyl)-4H-pyrido[3,2-b][1,4]thiazin-3-one] | – |
| 0.063 µg/mL (≈ 0.132 µM) | – | COc1ccc2ncc(F)c(CC(N)[C@H]3CC[C@H](NCc4ccc5c(c4)NC(=O)CO5)CC3)c2c1 (mixture of isomers) [Example 16, trans-6-({4-[(1RS)-1-amino-2-(3-fluoro-6-methoxy-quinolin-4-yl)-ethyl]-cyclohexylamino}-methyl)-4H-benzo[1,4]oxazin-3-one] | – |
| 1 µg/mL (≈ 2.17 µM) | – | COc1ccc2nccc(CC(N)[C@H]3CC[C@H](NCc4ccc5c(c4)NC(=O)CO5)CC3)c2c1 (mixture of isomers) [Example 19, trans-6-({4-[(1RS)-1-amino-2-(6-methoxy-quinolin-4-yl)-ethyl]-cyclohexylamino}-methyl)-4H-benzo[1,4]oxazin-3-one] | – |
| – | 0.125 µg/mL (≈ 0.262 µM) | COc1ccc2nccc(CC(N)[C@H]3CC[C@H](NCc4ccc5c(n4)NC(=O)CS5)CC3)c2c1 (mixture of isomers) [Example 20, trans-6-({4-[(1RS)-amino-2-(6-methoxy-quinolin-4-yl)-ethyl]-cyclohexylamino}-methyl)-4H-pyrido[3,2-b][1,4]thiazin-3-one] | – |
| – | 0.5 µg/mL (≈ 1.08 µM) | COc1ccc2nccc(CC(N)[C@H]3CC[C@H](NCc4ccc5c(n4)NC(=O)CO5)CC3)c2c1 (mixture of isomers) [Example 21, trans-6-({4-[(1RS)-amino-2-(6-methoxy-quinolin-4-yl)-ethyl]-cyclohexylamino}-methyl)-4H-pyrido[3,2-b][1,4]oxazin-3-one] | – |
| 0.125 µg/mL (≈ 0.253 µM) | – | COc1ccc2nccc([C@@H](O)[C@H](N)[C@H]3CC[C@H](NCc4ccc5c(n4)NC(=O)CS5)CC3)c2n1 (relative stereo) [Example 3, 6-(trans-{4-[(1R*,2R*)-1-amino-2-hydroxy-2-(6-methoxy-[1,5]naphthyridin-4-yl)-ethyl]-cyclohexylamino}-methyl)-4H-pyrido[3,2-b][1,4]thiazin-3-one] | – |
| – | 0.063 µg/mL (≈ 0.136 µM) | COc1ccc2nccc([C@@H](O)[C@H](N)[C@H]3CC[C@H](NCc4ccc5c(c4)OCCO5)CC3)c2n1 (relative stereo) [Example 17, trans-(1R*,2R*)-2-amino-2-{4-[(2,3-dihydro-benzo[1,4]dioxin-6-ylmethyl)-amino]-cyclohexyl}-1-(6-methoxy-[1,5]naphthyridin-4-yl)-ethanol] | MIC (S. aureus A798; table of typical results): 0.063 µg/mL (≈ 0.136 µM); MIC (P. aeruginosa A1124): 2 µg/mL (≈ 4.31 µM); MIC (A. baumanii T6474): 16 µg/mL (≈ 34.4 µM) |
| ≤ 0.031 µg/mL | – | COc1ccc2nccc([C@@H](O)[C@H](N)[C@H]3CC[C@H](NC/C=C/c4cc(F)ccc4F)CC3)c2n1 (relative stereo) [Example 18, trans-(1R*,2R*)-2-amino-2-{4-[(E)-3-(2,5-difluoro-phenyl)-allylamino]-cyclohexyl}-1-(6-methoxy-[1,5]naphthyridin-4-yl)-ethanol] | – |
| – | 4 µg/mL (≈ 8.36 µM) | COc1ccc2nccc(C[C@@H](N)[C@H]3CC[C@H](NCc4ccc5c(n4)NC(=O)CS5)CC3)c2n1 [Example 1, 6-(trans-{4-[(1R)-1-amino-2-(6-methoxy-[1,5]naphthyridin-4-yl)-ethyl]-cyclohexylamino}-methyl)-4H-pyrido[3,2-b][1,4]thiazin-3-one] | MIC (S. aureus A798; table of typical results): 4 µg/mL (≈ 8.36 µM); MIC (P. aeruginosa A1124): 0.063 µg/mL (≈ 0.132 µM); MIC (A. baumanii T6474): 32 µg/mL (≈ 66.9 µM) |
| 0.125 µg/mL (≈ 0.261 µM) | – | COc1ccc2nccc(C[C@H](N)[C@H]3CC[C@H](NCc4ccc5c(n4)NC(=O)CS5)CC3)c2n1 [Example 2, 6-(trans-{4-[(1S)-1-amino-2-(6-methoxy-[1,5]naphthyridin-4-yl)-ethyl]-cyclohexylamino}-methyl)-4H-pyrido[3,2-b][1,4]thiazin-3-one] | – |

| Compound | MIC (S. aureus A798; second table, all Examples) | MIC S. aureus A798 (S. aureus A798; second table, all Examples) | also measured |
| --- | --- | --- | --- |
| COc1ccc2c(CO)ccc(CC(N)[C@H]3CC[C@H](NC/C=C/c4cc(F)ccc4F)CC3)c2n1 (mixture of isomers) [Example 6, [8-((2RS)-2-amino-2-trans-{4-[3-(E)-(2,5-difluoro-phenyl)-allylamino]-cyclohexyl}-ethyl)-2-methoxy-quinolin-5-yl]-methanol] | – | 0.125 µg/mL (≈ 0.26 µM) | MIC S. aureus A798 (S. aureus A798; table of typical results): 0.125 µg/mL (≈ 0.26 µM); MIC P. aeruginosa A1124 (P. aeruginosa A1124): 0.5 µg/mL (≈ 1.04 µM); MIC A. baumanii T6474 (A. baumanii T6474): 16 µg/mL (≈ 33.2 µM) |
